Our source for the inhibition and IC50 values is ChEMBL document CHEMBL5236590, “Discovery of Novel N-(5-(Pyridin-3-yl)-1H-indazol-3-yl)benzamide Derivatives as Potent Cyclin-Dependent Kinase 7 Inhibitors for the Treatment of Autosomal Dominant Polycystic Kidney Disease” (J Med Chem, 2022).

Test [1] has as its target T1, Cyclin-dependent kinase 7 (Homo sapiens, UniProt P50613). Put plainly: Inhibition of CDK7 (unknown origin) assessed as phosphorylation of ULight 4EBP1 peptide substrate at 10 uM measured after 2 hrs by FRET-based LANCE Ultra KinSelect assay relative to control. For orientation: TR-FRET usually uses a lanthanide donor and a delayed reading to cut background.
Test [2] concerns the target T1, Cyclin-dependent kinase 7. Briefly: Inhibition of CDK7 (unknown origin) assessed as phosphorylation of ULight 4EBP1 peptide substrate measured after 2 hrs by FRET-based LANCE Ultra KinSelect assay.
For test [3], the target named is T2, Cyclin-dependent kinase 2 (Homo sapiens, UniProt P24941). Put plainly: Inhibition of CDK2 (unknown origin) assessed as phosphorylation of ULight 4EBP1 peptide substrate measured after 2 hrs by FRET-based LANCE Ultra KinSelect assay.
The target in test [4] is T2, Cyclin-dependent kinase 2. Briefly: Inhibition of CDK2 (unknown origin) assessed as phosphorylation of ULight 4EBP1 peptide substrate at 10 uM measured after 2 hrs by FRET-based LANCE Ultra KinSelect assay.
The next test relates to THP-1. Briefly: Cytotoxicity against human THP-1 cells assessed as cell viability measured after 24 hrs by CCK-8 assay. It counts as functional, cell-based. Particulars: THP-1, 24 h. In general terms: Formazan colour is commonly taken as a measure of viable cells.

T1 sequence (P50613 whole entry): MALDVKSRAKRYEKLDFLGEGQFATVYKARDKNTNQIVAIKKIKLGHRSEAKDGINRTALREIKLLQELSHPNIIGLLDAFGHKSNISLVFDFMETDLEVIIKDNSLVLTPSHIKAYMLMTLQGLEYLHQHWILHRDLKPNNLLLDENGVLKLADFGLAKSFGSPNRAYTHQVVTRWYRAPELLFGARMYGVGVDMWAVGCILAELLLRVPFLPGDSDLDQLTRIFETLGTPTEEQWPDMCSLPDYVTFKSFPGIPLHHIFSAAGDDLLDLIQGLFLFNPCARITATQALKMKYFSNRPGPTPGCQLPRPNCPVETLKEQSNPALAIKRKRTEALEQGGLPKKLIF

Usually inhibition stands for the relative decrease from the control value, in per cent. `Nc1cncc(-c2ccc3[nH]nc(NC(=O)c4ccccc4)c3c2)c1`: the inhibition in test [1] came out at 45%.
What is called IC50 is the concentration needed to halve the response being measured. For `O=C(Nc1n[nH]c2ccc(-c3cncc(NC[C@@H](CO)Cc4ccccc4)c3)cc12)c1ccccc1`, the 50% inhibitory concentration (IC50) in test [2] stood at 670 nM; in test [3], 609 nM.
With `NC[C@@H](CNc1cncc(-c2ccc3[nH]nc(NC(=O)c4ccccc4)c3c2)c1)c1ccccc1`, the 50% inhibitory concentration (IC50) in test [2] is 395 nM; in test [3], 190 nM.
Consider `N[C@H](C(=O)Nc1cncc(-c2ccc3[nH]nc(NC(=O)c4ccccc4)c3c2)c1)c1ccccc1`, for which the inhibition in test [4] turned out to be 34%. In addition, in test [2], the IC50 is 3140 nM.
As for `Cc1cncc(-c2ccc3[nH]nc(NC(=O)c4ccccc4)c3c2)c1`, in test [2], the half-inhibitory concentration (IC50) amounted to 2610 nM.
With `O=C(Nc1n[nH]c2ccc(-c3cncc(NCCO)c3)cc12)c1ccccc1`, in test [2], the IC50 was 1710 nM.
Take `N[C@H](Cc1ccccc1)C(=O)Nc1cncc(-c2ccc3[nH]nc(NC(=O)c4ccccc4)c3c2)c1`: the half-maximal inhibitory concentration (IC50) turned out to be 2070 nM in test [2] and 550 nM in test [3].
In the case of `C=CC(=O)Nc1ccc(C(=O)Nc2n[nH]c3ccc(-c4cncc(NC(=O)[C@@H](N)c5ccccc5)c4)cc23)cc1`, the concentration for half-maximal inhibition (IC50) in test [2] is 64 nM.
With `O=C(Nc1n[nH]c2ccc(-c3cncc(NC[C@@H](O)c4ccccc4)c3)cc12)c1ccccc1`, the values for the IC50 in test [2] and in test [3] were 440 nM and 802 nM, respectively.
As for `CNC(=O)c1cncc(-c2ccc3[nH]nc(NC(=O)c4ccccc4)c3c2)c1`, in test [2], the IC50 was 3780 nM.
`N[C@H](COc1cncc(-c2ccc3[nH]nc(NC(=O)c4ccccc4)c3c2)c1)Cc1ccccc1`: the IC50 worked out at 335 nM in test [2] and 97 nM in test [3].
In the case of `O=C(Nc1n[nH]c2ccc(-c3cncc(NC[C@H](O)c4ccccc4)c3)cc12)c1ccccc1`, the IC50 in test [2] came out at 311 nM; in test [3] it was 269 nM.
Consider `NCC(=O)Nc1cncc(-c2ccc3[nH]nc(NC(=O)c4ccccc4)c3c2)c1`, for which the IC50 in test [2] came out at 2490 nM.
With `C=CC(=O)Nc1ccc(C(=O)Nc2n[nH]c3ccc(-c4cncc(NC[C@H](O)c5ccccc5)c4)cc23)cc1`, the concentration for half-maximal inhibition (IC50) in test [2] was determined as 6 nM; in test [3] it was 918 nM.
For the molecule `N[C@@H](COc1cncc(-c2ccc3[nH]nc(NC(=O)c4ccccc4)c3c2)c1)c1ccccc1`, the inhibition in test [4] was found to be 48%. Moreover, the IC50 in test [2] turned out to be 4920 nM.
Regarding `N[C@H](COc1cncc(-c2ccc3[nH]nc(NC(=O)c4ccccc4)c3c2)c1)c1ccccc1`, the IC50 in test [2] came to 692 nM; in test [3] it was 120 nM.
As to `COc1cncc(-c2ccc3[nH]nc(NC(=O)c4ccccc4)c3c2)c1`, the concentration for half-maximal inhibition (IC50) in test [2] was 5530 nM.
Turning to `CN(C)C/C=C/C(=O)Nc1ccc(C(=O)Nc2cccc(Nc3ncc(Cl)c(-c4c[nH]c5ccccc45)n3)c2)cc1`, the IC50 in the test on THP-1 came to 77000 nM.
On to `O=C(Nc1n[nH]c2ccc(-c3cncc(NC[C@H](CO)Cc4ccccc4)c3)cc12)c1ccccc1`, for which the IC50 is 2640 nM in test [2] and 2400 nM in test [3].
The corresponding values for `C=CC(=O)Nc1ccc(C(=O)Nc2n[nH]c3ccc(-c4cncc(N[C@H](CO)c5ccccc5)c4)cc23)cc1` are 19 nM and 756 nM.
For `C=CC(=O)Nc1ccc(C(=O)Nc2n[nH]c3ccc(-c4cncc(NC(=O)[C@@H](N)Cc5ccccc5)c4)cc23)cc1`, the IC50 in test [2] came out at 7 nM; in test [3], 477 nM.
Consider `N[C@@H](C(=O)Nc1cncc(-c2ccc3[nH]nc(NC(=O)c4ccccc4)c3c2)c1)c1ccccc1`, for which the inhibition was 34% in test [1] and 29% in test [4].
With `O=C(Nc1n[nH]c2ccc(-c3cncc(O)c3)cc12)c1ccccc1`, the concentration for half-maximal inhibition (IC50) in test [2] was 7240 nM.
With `O=C(Nc1n[nH]c2ccc(-c3cccnc3)cc12)c1ccccc1`, in test [2], the IC50 amounted to 7550 nM.
`C=CC(=O)Nc1ccc(C(=O)Nc2n[nH]c3ccc(-c4cncc(N[C@H](CO)Cc5ccccc5)c4)cc23)cc1`: the IC50 in test [2] was 5 nM; in test [3], 595 nM.
Regarding `N[C@@H](Cc1ccccc1)C(=O)Nc1cncc(-c2ccc3[nH]nc(NC(=O)c4ccccc4)c3c2)c1`, the IC50 amounted to 1340 nM in test [2] and 1050 nM in test [3].
`NCCNc1cncc(-c2ccc3[nH]nc(NC(=O)c4ccccc4)c3c2)c1`: in test [2], the 50% inhibitory concentration (IC50) was determined as 1560 nM.
Consider `N[C@@H](COc1cncc(-c2ccc3[nH]nc(NC(=O)c4ccccc4)c3c2)c1)Cc1ccccc1`, for which the 50% inhibitory concentration (IC50) in test [2] is 2390 nM; in test [3], 499 nM.
As to `O=C(Nc1n[nH]c2ccc(-c3cncc(NC[C@H](CO)c4ccccc4)c3)cc12)c1ccccc1`, the concentration for half-maximal inhibition (IC50) is 1730 nM in test [2] and 577 nM in test [3].
For `NCCOc1cncc(-c2ccc3[nH]nc(NC(=O)c4ccccc4)c3c2)c1`, the half-maximal inhibitory concentration (IC50) in test [2] turned out to be 2000 nM.
Regarding `O=C(Nc1n[nH]c2ccc(-c3cncc(NC[C@@H](CO)c4ccccc4)c3)cc12)c1ccccc1`, the IC50 is 710 nM in test [2] and 813 nM in test [3].
